Measurements from the NIST ThermoML archive (doi:10.1021/acs.jced.8b00591).

Experiment: xn = mol fraction of the nth substance listed
Conditions: 101.3 kPa, Liquid; for viscosity: Falling or rolling sphere viscometry; for mass density: Vibrating tube method

CCCC[n+]1ccn(C)c1.O=S(=O)([N-]S(=O)(=O)C(F)(F)F)C(F)(F)F + COC(=O)OC
Conditions	mass density [kg/m3]	viscosity [mPa·s]
288.15 K, x1 = 0.0898	1178.03	1.605
288.15 K, x1 = 0.1882	1250.71	3.207
288.15 K, x1 = 0.2749	1295.36	5.396
288.15 K, x1 = 0.3754	1334.26	9.186
288.15 K, x1 = 0.472	1362.15	14.3
288.15 K, x1 = 0.5745	1385.8	22.53
288.15 K, x1 = 0.673	1404.16	32.06
288.15 K, x1 = 0.7799	1419.88	44.52
288.15 K, x1 = 0.8948	1434.65	61.53
288.15 K, x1 = 1	1445.66	78.02
293.15 K, x1 = 0.0898	1172.07	1.473
293.15 K, x1 = 0.1882	1245.1	2.886
293.15 K, x1 = 0.2749	1289.95	4.762
293.15 K, x1 = 0.3754	1329.02	7.93
293.15 K, x1 = 0.472	1357.02	12.12
293.15 K, x1 = 0.5745	1380.77	18.87
293.15 K, x1 = 0.673	1399.14	26.3
293.15 K, x1 = 0.7799	1414.97	35.81
293.15 K, x1 = 0.8948	1429.79	48.74
293.15 K, x1 = 1	1440.84	61.32
298.15 K, x1 = 0.0898	1166.07	1.365
298.15 K, x1 = 0.1882	1239.48	2.611
298.15 K, x1 = 0.2749	1284.55	4.235
298.15 K, x1 = 0.3754	1323.78	6.922
298.15 K, x1 = 0.472	1351.9	10.39
298.15 K, x1 = 0.5745	1375.74	16.3
298.15 K, x1 = 0.673	1394.18	21.86
298.15 K, x1 = 0.7799	1410.07	29.38
298.15 K, x1 = 0.8948	1424.93	39.46
298.15 K, x1 = 1	1436.01	48.93
303.15 K, x1 = 0.0898	1160.05	1.263
303.15 K, x1 = 0.1882	1233.85	2.376
303.15 K, x1 = 0.2749	1279.14	3.797
303.15 K, x1 = 0.3754	1318.55	6.1
303.15 K, x1 = 0.472	1346.78	8.998
303.15 K, x1 = 0.5745	1370.71	14
303.15 K, x1 = 0.673	1389.23	18.59
303.15 K, x1 = 0.7799	1405.18	24.46
303.15 K, x1 = 0.8948	1420.08	32.86
303.15 K, x1 = 1	1431.21	39.84
308.15 K, x1 = 0.0898	1154.02	1.173
308.15 K, x1 = 0.1882	1228.22	2.176
308.15 K, x1 = 0.2749	1273.73	3.428
308.15 K, x1 = 0.3754	1313.32	5.404
308.15 K, x1 = 0.472	1341.67	7.885
308.15 K, x1 = 0.5745	1365.7	11.98
308.15 K, x1 = 0.673	1384.29	16.17
308.15 K, x1 = 0.7799	1400.31	20.58
308.15 K, x1 = 0.8948	1415.26	27.73
308.15 K, x1 = 1	1426.43	32.91
313.15 K, x1 = 0.0898	1147.98	1.095
313.15 K, x1 = 0.1882	1222.58	2.002
313.15 K, x1 = 0.2749	1268.32	3.113
313.15 K, x1 = 0.3754	1308.09	4.822
313.15 K, x1 = 0.472	1336.58	6.959
313.15 K, x1 = 0.5745	1360.7	10.3
313.15 K, x1 = 0.673	1379.37	14.01
313.15 K, x1 = 0.7799	1395.44	17.54
313.15 K, x1 = 0.8948	1410.45	23.58
313.15 K, x1 = 1	1421.66	27.56
318.15 K, x1 = 0.0898	1141.93	1.022
318.15 K, x1 = 0.1882	1216.94	1.849
318.15 K, x1 = 0.2749	1262.92	2.837
318.15 K, x1 = 0.3754	1302.88	4.332
318.15 K, x1 = 0.472	1331.49	6.189
318.15 K, x1 = 0.5745	1355.71	8.913
318.15 K, x1 = 0.673	1374.45	12.1
318.15 K, x1 = 0.7799	1390.59	15.2
318.15 K, x1 = 0.8948	1405.67	19.93
318.15 K, x1 = 1	1416.91	23.33
323.15 K, x1 = 0.0898	1135.85	0.958
323.15 K, x1 = 0.1882	1211.3	1.719
323.15 K, x1 = 0.2749	1257.51	2.6
323.15 K, x1 = 0.3754	1297.67	3.943
323.15 K, x1 = 0.472	1326.4	5.54
323.15 K, x1 = 0.5745	1350.73	7.757
323.15 K, x1 = 0.673	1369.55	10.53
323.15 K, x1 = 0.7799	1385.74	13.21
323.15 K, x1 = 0.8948	1400.88	17.01
323.15 K, x1 = 1	1412.17	19.97
328.15 K, x1 = 0.0898	1129.76	0.899
328.15 K, x1 = 0.1882	1205.65	1.588
328.15 K, x1 = 0.2749	1252.1	2.394
328.15 K, x1 = 0.3754	1292.46	3.59
328.15 K, x1 = 0.472	1321.33	4.994
328.15 K, x1 = 0.5745	1345.75	6.772
328.15 K, x1 = 0.673	1364.66	9.191
328.15 K, x1 = 0.7799	1380.9	11.54
328.15 K, x1 = 0.8948	1396.12	14.93
328.15 K, x1 = 1	1407.45	17.41

CCn1cc[n+](C)c1.O=S(=O)([N-]S(=O)(=O)C(F)(F)F)C(F)(F)F + COC(=O)OC
Conditions	mass density [kg/m3]	viscosity [mPa·s]
288.15 K, x1 = 0.0989	1199.15	1.579
288.15 K, x1 = 0.1983	1282.85	2.913
288.15 K, x1 = 0.2973	1342.57	4.862
288.15 K, x1 = 0.3958	1387.69	7.561
288.15 K, x1 = 0.496	1423.97	11.21
288.15 K, x1 = 0.5954	1452.55	16.89
288.15 K, x1 = 0.6967	1476.87	22.56
288.15 K, x1 = 0.7982	1497.52	30.07
288.15 K, x1 = 0.9004	1514.5	38.55
288.15 K, x1 = 1	1528.55	49.41
293.15 K, x1 = 0.0989	1193.1	1.451
293.15 K, x1 = 0.1983	1277.11	2.637
293.15 K, x1 = 0.2973	1337.02	4.332
293.15 K, x1 = 0.3958	1382.28	6.635
293.15 K, x1 = 0.496	1418.62	9.698
293.15 K, x1 = 0.5954	1447.28	14.58
293.15 K, x1 = 0.6967	1471.62	19.02
293.15 K, x1 = 0.7982	1492.37	25.12
293.15 K, x1 = 0.9004	1509.39	31.87
293.15 K, x1 = 1	1523.47	40.36
298.15 K, x1 = 0.0989	1187.03	1.348
298.15 K, x1 = 0.1983	1271.35	2.4
298.15 K, x1 = 0.2973	1331.47	3.884
298.15 K, x1 = 0.3958	1376.85	5.878
298.15 K, x1 = 0.496	1413.28	8.484
298.15 K, x1 = 0.5954	1442.02	12.53
298.15 K, x1 = 0.6967	1466.42	16.66
298.15 K, x1 = 0.7982	1487.23	21.25
298.15 K, x1 = 0.9004	1504.28	26.71
298.15 K, x1 = 1	1518.39	33.52
303.15 K, x1 = 0.0989	1180.95	1.25
303.15 K, x1 = 0.1983	1265.59	2.195
303.15 K, x1 = 0.2973	1325.91	3.507
303.15 K, x1 = 0.3958	1371.44	5.241
303.15 K, x1 = 0.496	1407.96	7.472
303.15 K, x1 = 0.5954	1436.78	10.8
303.15 K, x1 = 0.6967	1461.24	14.52
303.15 K, x1 = 0.7982	1482.09	18.37
303.15 K, x1 = 0.9004	1499.19	22.66
303.15 K, x1 = 1	1513.34	28.35
308.15 K, x1 = 0.0989	1174.86	1.162
308.15 K, x1 = 0.1983	1259.83	2.019
308.15 K, x1 = 0.2973	1320.35	3.177
308.15 K, x1 = 0.3958	1366.03	4.706
308.15 K, x1 = 0.496	1402.66	6.64
308.15 K, x1 = 0.5954	1431.55	9.382
308.15 K, x1 = 0.6967	1456.07	12.62
308.15 K, x1 = 0.7982	1476.98	16.22
308.15 K, x1 = 0.9004	1494.12	19.42
308.15 K, x1 = 1	1508.3	24.15
313.15 K, x1 = 0.0989	1168.75	1.086
313.15 K, x1 = 0.1983	1254.07	1.865
313.15 K, x1 = 0.2973	1314.81	2.904
313.15 K, x1 = 0.3958	1360.63	4.247
313.15 K, x1 = 0.496	1397.36	5.946
313.15 K, x1 = 0.5954	1426.34	8.189
313.15 K, x1 = 0.6967	1450.93	10.96
313.15 K, x1 = 0.7982	1471.88	14.22
313.15 K, x1 = 0.9004	1489.06	17.21
313.15 K, x1 = 1	1503.28	20.76
318.15 K, x1 = 0.0989	1162.63	1.016
318.15 K, x1 = 0.1983	1248.3	1.729
318.15 K, x1 = 0.2973	1309.26	2.661
318.15 K, x1 = 0.3958	1355.23	3.831
318.15 K, x1 = 0.496	1392.08	5.358
318.15 K, x1 = 0.5954	1421.14	7.249
318.15 K, x1 = 0.6967	1445.79	9.578
318.15 K, x1 = 0.7982	1466.8	12.43
318.15 K, x1 = 0.9004	1484.02	15.16
318.15 K, x1 = 1	1498.27	17.9
323.15 K, x1 = 0.0989	1156.5	0.954
323.15 K, x1 = 0.1983	1242.54	1.608
323.15 K, x1 = 0.2973	1303.72	2.452
323.15 K, x1 = 0.3958	1349.85	3.512
323.15 K, x1 = 0.496	1386.81	4.857
323.15 K, x1 = 0.5954	1415.92	6.332
323.15 K, x1 = 0.6967	1440.67	8.381
323.15 K, x1 = 0.7982	1461.74	10.9
323.15 K, x1 = 0.9004	1479	13.29
323.15 K, x1 = 1	1493.28	15.93
328.15 K, x1 = 0.0989	1150.34	0.898
328.15 K, x1 = 0.1983	1236.76	1.501
328.15 K, x1 = 0.2973	1298.19	2.268
328.15 K, x1 = 0.3958	1344.47	3.224
328.15 K, x1 = 0.496	1381.55	4.421
328.15 K, x1 = 0.5954	1410.75	5.588
328.15 K, x1 = 0.6967	1435.57	7.456
328.15 K, x1 = 0.7982	1456.69	9.61
328.15 K, x1 = 0.9004	1474	11.68
328.15 K, x1 = 1	1488.31	14.26
